Assay results reported in patent US9994525B2, “H3 antagonists containing phenoxypiperidine core structure” (RICHTER GEDEON NYRT., priority 2013, dated 2018).
Counter-ions that a name gives are not always drawn.

Key:
[1] = cited from earlier work
hERG potassium channel = hERG potassium channel (Homo sapiens (Human), UniProt Q12809); settings: cited from earlier work
[2] = biological target: rat histamine H3 receptors (Rattus norvegicus (Rat), UniProt Q9QYN8); experiment: rat histamine H3 receptor in vitro binding assay, N-α-[Methyl-3H]methylhistamine radioligand, rat cortex membrane; settings: 1 nM radioligand, read-out: rH3 Ki
Procedure: The in vitro affinity of the compounds of the present invention for rat histamine H3 receptors can be determined according to the following procedure.
The rat histamine H3 receptor membrane was prepared as previously described by Witte et al. (British Journal of Pharmacol. 1-14, 2006). Male Sprague-Dawley rats were decapitated, their brains were removed and the cortex was isolated. The obtained tissues were homogenized in Tris-EDTA buffer (50 mM Tris-HCl, pH 7.4, 5 mM EDTA, 2 aprotinin, 1 mM benzamidine, 2 μg/ml leupeptin, 1 pepstatin) by a blender homogenizer (Ultra-Turrax). The homogenate was centrifuged at 40000 g for 20 min at 4° C. The membrane pellets were further purified by repeating the above homogenization and centrifugation steps. Final membrane preparations were obtained by rehomogenizing the pellets in 1:10 ratio in Tris-EDTA buffer (50 mM Tris-HCl, pH 7.4, 5 mM EDTA). The so obtained membrane preparation was divided into aliquots, flash frozen and stored at −80° C. until use. Protein content was determined by Lowry method using bovine serum albumin (BSA) as standard.
Receptor binding assays were performed in at least 5 concentrations, with two parallel samples in each concentrations, in at least two independent experiments using the binding buffer (50 mM Tris-HCl, pH 7.4, 5 mM MgCl2), rat H3 membrane (140 μg protein/tube), and N-α-[Methyl-^3H]methylhistamine dihydrochloride (1 nM) as radioligand. Non-specific binding was determined in the presence of 10 μM thioperamide. The samples were incubated in a final volume of 0.50 ml for 30 min at 25° C. Binding reactions were terminated by rapid filtration through UniFilter® GF/B™ fiber glass filters presoaked for at least 2 h in 0.5% polyethylene imine (PEI). The filterplates were washed nine times with 0.5 ml of ice-cold washing buffer (50 mM Tris-HCl, pH 7.4, 5 mM MgCl2, 10 μg/ml saponine). The filterplates were dried at 50° C. for 45 min and 40 μl of Microscint20 (Packard) scintillation cocktail was added to each well. Filters radioactivity was determined by TopCount (Packard) scintillation counter.
The ligand displacement by the compounds of the present invention was determined in at least two parallel experiments. The specific radioligand binding was defined as the difference between the total binding and the non-specific binding determined in the presence of excess of unlabelled ligand or test compounds used to specifically displace the radioligand. Results were expressed as a percent inhibition of specific binding obtained in the presence of test compounds. IC50 values were calculated from concentration-displacement curves by sigmoidal fitting using GraphPad Prism Software 4.0. Inhibition constants (Ki values) were calculated using the Cheng-Prusoff equation (Cheng Y C and Prusoff W H (1973) Biochem Pharmacol 22:3099-3108).
The affinity at rat H3 receptors of compounds of the present invention is illustrated by the following table.

[3] = test system: extracellular histamine (HA) levels; experiment: cerebral microdialysis, extracellular histamine (HA) levels in prefrontal cortex and hippocampus; type: in vivo, male Wistar rats; settings: rats
Source text: (§1) Prefrontal cortex and hippocampus, the two brain regions play important roles in cognition processes. Both histamine (HA) and acetylcholine (ACh) are transmitters playing important roles in cognition. The hypofunction of the central cholinergic and histaminergic systems is considered one of the pathogenic causes of the cognitive deficits characterizing dementias. Alterations in the extracellular levels of HA and ACh were investigated after single and simultaneous treatment with histamine H3 antagonists and acetylcholine esterase inhibitors (AChEIs) in the prefrontal cortex and hippocampus of conscious, freely moving male Wistar rats (4-6 animals/group) by cerebral microdialysis technique.
(§2) Microdialysis probes were implanted in the medial prefrontal cortex (MPFC) and hippocampus (HC), and perfused with artificial AChEI-free cerebrospinal fluid (aCSF). Compounds examined in the present study were administered in 1% hydroxypropyl-methylcellulose (HPMC) and 5% polyoxiethelen(8)-sorbitane-monooleat (Tween 80) into the stomach via surgically implanted catheter.
(§3) Thirty-min samples were collected and the temporal changes in the extracellular ACh and histamine HA were followed by high-sensitivity and selectivity liquid chromatography coupled with mass spectrometry/mass spectrometry (LC-MS/MS) analytical method. […]

[4] = test system: extracellular acetylcholine (ACh) levels; experiment: cerebral microdialysis, extracellular acetylcholine (ACh) levels in prefrontal cortex and hippocampus; type: in vivo, male Wistar rats; settings: rats
Source text: as §1, §2, §3

[5] = rat, in vivo
[6] = single treatment, 0.5 and 1 mg/kg into the stomach, MPFC and HC

rat histamine H3 receptors, sequence (Q9QYN8 whole entry): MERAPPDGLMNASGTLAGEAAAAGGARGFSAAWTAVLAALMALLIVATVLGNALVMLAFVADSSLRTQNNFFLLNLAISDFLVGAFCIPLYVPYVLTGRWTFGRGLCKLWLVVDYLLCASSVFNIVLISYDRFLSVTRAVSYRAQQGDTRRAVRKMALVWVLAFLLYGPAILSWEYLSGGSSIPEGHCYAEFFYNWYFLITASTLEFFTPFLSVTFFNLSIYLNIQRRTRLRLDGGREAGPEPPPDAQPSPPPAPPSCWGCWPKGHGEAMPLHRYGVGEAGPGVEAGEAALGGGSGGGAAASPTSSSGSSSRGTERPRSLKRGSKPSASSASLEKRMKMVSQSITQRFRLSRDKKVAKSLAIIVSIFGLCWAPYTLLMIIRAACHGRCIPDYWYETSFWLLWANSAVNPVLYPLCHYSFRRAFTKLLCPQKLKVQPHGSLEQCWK
hERG potassium channel, sequence (Q12809 whole entry): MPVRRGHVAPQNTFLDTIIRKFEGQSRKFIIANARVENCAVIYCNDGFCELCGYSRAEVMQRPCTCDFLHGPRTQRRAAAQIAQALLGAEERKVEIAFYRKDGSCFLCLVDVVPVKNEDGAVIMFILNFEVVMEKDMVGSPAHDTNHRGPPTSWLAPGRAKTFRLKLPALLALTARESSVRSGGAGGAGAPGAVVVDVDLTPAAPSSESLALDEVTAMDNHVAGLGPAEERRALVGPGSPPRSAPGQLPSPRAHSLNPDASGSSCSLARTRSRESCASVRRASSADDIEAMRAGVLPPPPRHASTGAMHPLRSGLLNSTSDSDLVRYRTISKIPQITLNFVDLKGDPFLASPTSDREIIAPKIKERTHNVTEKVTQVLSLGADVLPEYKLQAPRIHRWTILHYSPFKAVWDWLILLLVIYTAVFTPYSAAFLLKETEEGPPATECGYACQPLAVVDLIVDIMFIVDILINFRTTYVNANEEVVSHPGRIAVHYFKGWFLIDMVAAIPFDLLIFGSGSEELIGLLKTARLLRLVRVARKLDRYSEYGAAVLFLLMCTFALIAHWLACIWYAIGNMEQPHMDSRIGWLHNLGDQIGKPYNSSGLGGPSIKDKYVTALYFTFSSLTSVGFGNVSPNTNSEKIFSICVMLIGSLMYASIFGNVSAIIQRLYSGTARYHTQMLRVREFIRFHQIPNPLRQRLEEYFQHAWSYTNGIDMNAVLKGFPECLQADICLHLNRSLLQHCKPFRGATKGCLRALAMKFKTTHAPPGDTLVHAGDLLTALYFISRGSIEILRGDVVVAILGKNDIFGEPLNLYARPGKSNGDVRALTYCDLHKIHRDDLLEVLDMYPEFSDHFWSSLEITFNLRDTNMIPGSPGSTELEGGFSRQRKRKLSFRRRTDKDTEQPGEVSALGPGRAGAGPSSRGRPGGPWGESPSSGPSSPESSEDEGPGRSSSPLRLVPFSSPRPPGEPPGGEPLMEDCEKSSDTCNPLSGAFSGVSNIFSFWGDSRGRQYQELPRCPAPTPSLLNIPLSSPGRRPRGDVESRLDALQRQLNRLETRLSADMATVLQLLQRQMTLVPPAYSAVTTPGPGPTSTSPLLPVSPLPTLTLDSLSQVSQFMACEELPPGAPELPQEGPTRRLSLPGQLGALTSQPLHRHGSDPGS

Compound	Ki [2]	other results
C[C@@H]1CCCN1CCc1cc2cc(-c3ccc(C#N)cc3)ccc2o1 [ABT-239]		plasma protein binding [1]: High; cardiovascular side-effects, interaction with the hERG potassium channel (hERG potassium channel): interaction with the hERG potassium channel
CC(C)(C)OC(=O)N1CCC(Oc2ccc(OCCCN3CCCCC3)cc2)CC1 [Example 1, 4-{4-[3-(piperidin-1-yl)-propoxy]-phenoxy}-piperidine-1-carboxylic acid tert-butyl ester]	10 to 50 nM	
c1cc(OC2CCNCC2)ccc1OCCCN1CCCCC1 [Example 2, 1-{3-[4-(piperidin-4-yl-oxy)-phenoxy]-propyl}-piperidine dihydrochloride salt]	10 to 50 nM	
CCNC(=O)N1CCC(Oc2ccc(OCCCN3CCCCC3)cc2)CC1 [Example 7, N-ethyl-4-{4-[3-(piperidin-1-yl)-propoxy]-phenoxy}-piperidine-1-carboxamide]	10 to 50 nM	
CCN(C)C(=O)N1CCC(Oc2ccc(OCCCN3CCCCC3)cc2)CC1 [Example 8, N-ethyl-N-methyl-4-{4-[3-(piperidin-1-yl)-propoxy]-phenoxy}-piperidine-1-carboxamide hydrochloride salt]	10 to 50 nM	
C[C@@H]1CCCN1CCCOc1ccc(OC2CCN(C(=O)OC(C)(C)C)CC2)cc1 [Example 9, 4-(4-{3-[(2R)-2-methyl-pyrrolidin-1-yl]-propoxy}-phenoxy)-piperidine-1-carboxylic acid tert-butyl ester]	10 to 50 nM	
C[C@@H]1CCCN1CCCOc1ccc(OC2CCNCC2)cc1 [Example 10, 4-(4-{3-[(2R)-2-methyl-pyrrolidin-1-yl]-propoxy}-phenoxy)-piperidine dihydrochloride salt]	< 10 nM	
CC(=O)N1CCC(Oc2ccc(OCCCN3CCC[C@H]3C)cc2)CC1 [Example 11, 1-[4-(4-{3-[(2R)-2-methyl-pyrrolidin-1-yl]-propoxy}-phenoxy)-piperidin-1-yl]-ethanone hydrochloride salt]	10 to 50 nM	HA release evoked by Compound 11 ([3]; simultaneous administration with donepezil): not changed; extracellular HA level [3, 6]: rapid and expressed increase; extracellular ACh ([4]; simultaneous administration of 0.5 mg/kg donepezil and 0.5 or 1 mg/kg Compound 11, MPFC and HC): supra-additive increase; ACh levels [4, 6]: No significant changes; plasma and brain levels [5]: did not change
C[C@@H]1CCCN1CCCOc1ccc(OC2CCN(C(=O)C3(C)CC3)CC2)cc1 [Example 13, (1-methyl-cyclopropyl)-[4-(4-{3-[(2R)-2-methyl-pyrrolidin-1-yl]-propoxy}-phenoxy)-piperidin-1-yl]-methanone hydrochloride salt]	< 10 nM	
CCOC(=O)N1CCC(Oc2ccc(OCCCN3CCC[C@H]3C)cc2)CC1 [Example 14, ethyl-4-(4-{3-[(2R)-2-methyl-pyrrolidin-1-yl]-propoxy}-phenoxy)-piperidine-1-carboxilate hydrochloride salt]	< 10 nM	
CCNC(=O)N1CCC(Oc2ccc(OCCCN3CCC[C@H]3C)cc2)CC1 [Example 15, N-ethyl-4-(4-{3-[(2R)-2-methyl-pyrrolidin-1-yl]-propoxy}-phenoxy)-piperidine-1-carboxamide]	< 10 nM	

More lines, main results first:

Ki [2]	Compound	other results
< 10 nM	CC(=O)N1CCC(Oc2ccc(OCCCN3CCCCC3)cc2)CC1 [Example 3, 1-(4-{4-[3-(piperidin-1-yl)-propoxy]-phenoxy}-piperidin-1-yl)-ethanone hydrochloride salt]	
10 to 50 nM	O=C(C1CCC1)N1CCC(Oc2ccc(OCCCN3CCCCC3)cc2)CC1 [Example 4, Cyclobutyl-(4-{4-[3-(piperidin-1-yl)-propoxy]-phenoxy}-piperidin-1-yl)-methanone hydrochloride salt]	
< 10 nM	CC1(C(=O)N2CCC(Oc3ccc(OCCCN4CCCCC4)cc3)CC2)CC1 [Example 5, (1-methyl-cyclopropyl)-(4-{4-[3-(piperidin-1-yl)-propoxy]-phenoxy}-piperidin-1-yl)-methanon hydrochloride salt]	
10 to 50 nM	CCOC(=O)N1CCC(Oc2ccc(OCCCN3CCCCC3)cc2)CC1 [Example 6, Ethyl-4-{4-[3-(piperidin-1-yl)-propoxy]-phenoxy}-piperidine-1-carboxylate hydrochloride salt]	
< 10 nM	C[C@@H]1CCCN1CCCOc1ccc(OC2CCN(C(=O)C3CCC3)CC2)cc1 [Example 12, cyclobutyl-[4-(4-{3-[(2R)-2-methylpyrrolidin-1-yl]-propoxy}-phenoxy)-piperidin-1-yl]-methanone hydrochloride salt]	
< 10 nM	CCN(C)C(=O)N1CCC(Oc2ccc(OCCCN3CCC[C@H]3C)cc2)CC1 [Example 16, N-ethyl-N-methyl-4-(4-{3-[(2R)-2-methyl-pyrrolidin-1-yl]-propoxy}-phenoxy)-piperidine-1-carboxamide hydrochloride salt]	
